{
  "source": "patent US12251449B2",
  "about": "“Synthetic multidomain peptide biomaterials that inhibit inducible nitric oxide synthase” (William Marsh Rice University, priority 2019, dated 2025)",
  "key": {"[1]": {"test_system": "RAW 264.7 cells", "experiment": "Live-dead viability of RAW 264.7 cells on MDP hydrogels", "format": "cell-based, mouse", "settings": "RAW macrophages on 1 wt. % hydrogel, one to three days", "experimental": "Cell culture. For in vitro experiments, mouse RAW 264.7 cells (ATCC TIB-71) were grown in DMEM media supplemented with 10% Heat-Inactivated Fetal Bovine Serum (HI-FBS), L-glutamine, sodium pyruvate, and 1% penicillin-streptomycin. Cells were cultured at 37° C. with 5% CO2 and subcultured using scraping.\nFor 2-D culture live-dead viability studies, peptide hydrogels were pipetted into 0.4 cm^2 wells of Lab-Tek 16 well glass chamber slides (Thermo Fischer, Rochester, NY). Gels were pipetted to produce 70 μL pucks with a thickness of 1.75 mm. The gels were carefully pipetted into the bottom of each well and tapped before shear recovery to create flat gel profiles. After pipetting, the samples were allowed to shear recover for 5-10 min before adding 200 μL cell media and 10,000 RAW 264.7 cells. For each experiment time point (days 1 and 3) separate slides with duplicate gels were created. The cell media was changed every 2 days, taking care to not disturb or dislodge the gel material.\nAt each desired time point the following procedure was used to stain the cells for live-dead analysis. Live-dead staining solution was prepared in DPBS (Thermo Fisher Scientific, Rockford, IL) with 2 μM Calcein AM (Life Technologies), 4 μM Ethidium homodimer (Life Technologies), and 5 μg/mL Hoechst 33342 (BD Biosciences, San Jose, CA). Cell media was removed from the top of the hydrogel samples, which were then washed with PBS. Samples were then stained with 100 μL of prepared solution by incubating at 37° C. with 5% CO2 for 60 min while protected from light. After staining, the gels were removed from the glass chamber slides and placed in PBS before immediately imaging by confocal. Gels were analyzed by z-stack imaging using a Nikon A1 Confocal Microscope with a 40× water objective (405 nm blue channel laser, 488 nm green channel laser, 561 nm red channel laser). Image processing was done using NIS Elements, and Imaris Cell Counting software was used to quantify live-dead percentages."}, "[2]": {"molecular_target": "T1, iNOS (Mus musculus, UniProt P29477)", "T1 construct": "endogenous in cells; host or cells: RAW 264.7 murine macrophages stimulated with LPS and IFN-gamma", "T1 sequence (P29477 1-1144)": "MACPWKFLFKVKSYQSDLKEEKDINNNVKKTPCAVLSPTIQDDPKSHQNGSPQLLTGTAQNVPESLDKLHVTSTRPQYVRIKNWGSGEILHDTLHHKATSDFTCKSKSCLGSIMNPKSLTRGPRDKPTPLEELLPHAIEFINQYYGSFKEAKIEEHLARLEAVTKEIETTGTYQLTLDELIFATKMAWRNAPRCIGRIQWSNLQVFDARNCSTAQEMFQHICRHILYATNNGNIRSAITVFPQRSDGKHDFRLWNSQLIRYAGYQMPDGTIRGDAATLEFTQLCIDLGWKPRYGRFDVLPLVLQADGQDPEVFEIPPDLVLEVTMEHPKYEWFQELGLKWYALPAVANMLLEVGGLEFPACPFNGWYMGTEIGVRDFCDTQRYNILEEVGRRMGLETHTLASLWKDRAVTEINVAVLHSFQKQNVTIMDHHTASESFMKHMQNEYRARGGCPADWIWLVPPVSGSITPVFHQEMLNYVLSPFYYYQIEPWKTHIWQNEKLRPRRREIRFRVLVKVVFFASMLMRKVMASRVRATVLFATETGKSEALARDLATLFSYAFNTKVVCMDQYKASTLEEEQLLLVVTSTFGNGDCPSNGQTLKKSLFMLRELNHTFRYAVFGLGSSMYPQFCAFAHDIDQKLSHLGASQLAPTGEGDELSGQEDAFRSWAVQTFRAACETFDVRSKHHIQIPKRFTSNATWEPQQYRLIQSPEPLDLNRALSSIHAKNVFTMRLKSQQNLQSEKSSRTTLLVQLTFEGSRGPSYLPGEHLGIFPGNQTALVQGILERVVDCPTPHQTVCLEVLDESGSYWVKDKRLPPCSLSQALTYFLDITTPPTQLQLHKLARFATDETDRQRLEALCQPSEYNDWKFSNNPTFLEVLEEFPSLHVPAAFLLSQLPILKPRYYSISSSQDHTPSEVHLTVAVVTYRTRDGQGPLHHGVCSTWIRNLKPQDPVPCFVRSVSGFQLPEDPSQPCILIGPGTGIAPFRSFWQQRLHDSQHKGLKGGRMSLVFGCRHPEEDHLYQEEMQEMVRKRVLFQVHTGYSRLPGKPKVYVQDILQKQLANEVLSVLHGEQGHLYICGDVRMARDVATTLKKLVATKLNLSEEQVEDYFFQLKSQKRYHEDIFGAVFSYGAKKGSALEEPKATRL", "experiment": "iNOS knockdown in vitro Greiss assay", "format": "cell-based", "experimental": "iNOS knockdown in vitro Greiss assay. To evaluate the iNOS knockdown efficacy of various materials, the following procedure was used to test % iNOS inhibition of RAW 264.7 cells stimulated with Lipopolysaccharide (LPS, Thermo Fisher Scientific, Rockford, IL) and recombinant mouse IFN-7 (Biolegend, San Diego, CA). RAW macrophages were prepared at a stock concentration of 2.5×10^6 cells/mL, and plated at 2.5×10^5 cells per well in 24-well plates. For samples testing the efficacy of 2-D surface cell culture, 200 μL of MDP hydrogels was applied to evenly coat the surface of each well before addition of cells. Each experimental condition was performed in triplicate. The following controls were included in every experiment, 1) media alone, 2) stimulated cells alone, and 3) unstimulated cells alone. To each well, stimulation media or normal media was then added based on experimental requirement. Stimulation media was prepared with LPS (final concentration 1 μg/mL) and IFN-7 (final concentration 100 U/mL). For samples testing material efficacy in solution (e.g. free L-NIL), after 6 hrs of incubation at 37° C. with 5% CO2 the desired concentration of inhibitor was added to achieve a range of concentrations between 1 μM and 1 mM.\nIn all cases after 24 hours from time of stimulation, samples of cell media were collected from each well after mixing media by pipetting before collection. Media samples were placed into a 96-well plate and centrifuged at 5000 rpm for 10 min. Supernatants were removed and placed in a new clear 96-well plate, and samples were immediately analyzed using a colorimetric Greiss Assay (Cayman Chemical, Ann Arbor, MI) to assess nitrite levels (Bryan & Grisham, 2007). Color was allowed to develop for 10 min following addition of Greiss reagents, and absorbance was read at 540 nm on a plate reader. Percent iNOS inhibition for each sample was calculated by first subtracting the absorbance of the media-only baseline, and then converting to a percent of maximum nitrite signal as determined by the internal standard of stimulated cells alone."}, "[3]": {"test_system": "iNOS", "experiment": "Anti-nitrotyrosine immunostaining of subcutaneously injected hydrogels", "format": "in vivo, mice", "settings": "subcutaneous implants, 3 and 7 days post injection", "experimental": "Subcutaneous experiments and histology. C57BL/6J female mice were purchased from The Jackson Laboratory at age 8-12 weeks for subcutaneous characterization experiments. Mice were housed under specific pathogen-free conditions in standard temperature and lighting conditions with free access to food and water, and experiments were conducted with approval of the Institutional Animal Care and Use Committee (IACUC) at Rice University and according to NIH guidelines. Mice were injected with 100 μL MDP hydrogels in each of four separate sites in the subcutaneous space of the dorsal flank after the skin was shaved and sterilized with alcohol. At days 3, 7, 14, and 21 the mice were euthanized and the dorsal skin around the entire implant was removed, fixed overnight in 10% neutral buffered formalin, processed and paraffin embedded, and finally sectioned at […] thickness for staining using standard Masson's trichrome or hematoxylin and eosin (H&E) procedures, as well as immunohistochemical analyses (e.g., anti-nitrotyrosine IHC, or α-SMA blood vessel analysis).\nImmunohistochemistry staining was performed on hydrogel implant tissue sections to further study in vivo properties of the L-NIL-MDP compared to related cationic MDPs. Anti-nitrotyrosine immunostaining was used to assess relative levels of nitrosylation of tyrosine within and around the subcutaneously injected hydrogel implants as a marker of iNOS inhibition (FIGS. 7A-H). It is known that the formation of nitric oxide (NO) and other nitrogen oxides in vivo can lead to observable post-translation modifications of peptides and proteins (Ischiropoulos, 2003). For example, surface-exposed 3-nitrotyrosine can be used as a marker of cell or tissue inflammation and damage by reactive nitrogen and oxygen species such as NO (Ahsan, 2013). The higher the local levels of iNOS activity, the greater should be the density of nitrosylated tyrosine. Therefore, visualization of nitrotyrosine levels by targeted antibodies can serve as a general indication of in vivo iNOS activity, or in the case of the L-NIL-MDP, local iNOS inhibition."}, "[4]": {"settings": "reported in Aulisa et al., 2009; cited from earlier work"}, "[5]": {"test_system": "MOC1 tumors", "experiment": "MOC orthotopic murine model of oral cancer (Example 9)", "settings": "established 4-5 mm MOC1 tumors, single 30 μl intratumoral injection", "quoted_text": "MOC orthotopic murine model of oral cancer. MOC1 tumors were established by injecting 2×10^6 cells (70%:30% cells: Matrigel®Matrix) into the maxillary vestibule of the left oral cavity in C57BL/6J mice. […] Tumor growth was monitored by tumor size measurements (in diameter) taken at least two times per week using digital calipers to measure the longest dimension (single dimension). Data was then analyzed for Kaplan-Meier survival and tumor growth curves. […] Excessive tumor burden, defined as tumor diameter reaching 12 mm, tumor ulceration, or a weight loss of greater than 20% were factors that were considered for all endpoints in tumor growth and survival data.\nStatistical methods. Statistical analyses were performed using Prism 7.0 (GraphPad, San Diego, CA). Statistical analyses for Kaplan-Meier survival curves were performed using the Log-rank/Mantel-Cox test. Statistical significance for tumor growth curves was determined by a two-way ANOVA test followed by selected comparison using Tukey's multiple comparison tests with multiple comparison correction. All p values were two-sided and p values less than 0.05 were considered significant."}},
  "data": [
    {"smiles": "CC(=O)N[C@@H](CCCCN)C(=O)N[C@@H](CCCCN)C(=O)N[C@@H](CO)C(=O)N[C@@H](CC(C)C)C(=O)N[C@@H](CO)C(=O)N[C@@H](CC(C)C)C(=O)N[C@@H](CO)C(=O)N[C@@H](CC(C)C)C(=O)N[C@@H](CO)C(=O)N[C@@H](CC(C)C)C(=O)N[C@@H](CO)C(=O)N[C@@H](CC(C)C)C(=O)N[C@@H](CO)C(=O)N[C@@H](CC(C)C)C(=O)N[C@@H](CCCCN)C(=O)N[C@@H](CCCCN)C(N)=O", "note": "[K2-MDP, K2(SL)6K2]", "values": [
      {"measurement": "cell attachment, survival and proliferation (in words)", "setting": "[1]", "value": "highest degrees of cell attachment and proliferation"},
      {"measurement": "free L-NIL concentration giving a comparable level of iNOS inhibition", "setting": "[2]; hydrogel surface culture compared with free L-NIL in solution", "value": "< 10", "unit": "µM"},
      {"measurement": "iNOS inhibitory activity, fold less than L-NIL-MDP", "setting": "[2]; in terms of comparison to free L-NIL concentration", "value": "~10", "unit": "fold"},
      {"measurement": "iNOS inhibition (in words)", "setting": "[2]; stimulated RAW macrophages cultured on the hydrogel", "value": "moderate"},
      {"measurement": "nitrotyrosine staining intensity (in words)", "setting": "[3]", "value": "moderate"},
      {"measurement": "storage modulus (G′)", "setting": "[4]", "value": "200-500 Pa"},
      {"measurement": "median survival", "setting": "[5]", "value": 46, "unit": "days"}
    ]}
  ]
}
